ChEMBL document CHEMBL4673289, “Design, synthesis and biological evaluation of imidazolopyridone derivatives as novel BRD4 inhibitors” (Bioorg Med Chem, 2021)
Calls of active or inactive are those of the source. The calls are words filed in the database; no cut-off is given here.

Columns and labels:
BXPC-3 [1] = experiment: Cell cycle arrest in human BXPC-3 cells assessed as acumulation at G0/G1 phase by measuring downregulation of CyclinE1 at 4 to 16 uM measured after 48 hrs by Western blot analysis; assay type: functional, cell-based; details: dose 4-16 µM
SMMC-7721 = experiment: Antiproliferative activity against human SMMC-7721 cells assessed as cell growth inhibition at 2 uM measured after 48 to 72 hrs by MTT assay relative to control; assay type: functional; details: time 48-72 hrs, read-out: GI
BXPC-3 [2] = experiment: Antiproliferative activity against human BXPC-3 cells assessed as cell growth inhibition at 2 uM measured after 48 to 72 hrs by MTT assay relative to control; assay type: functional; details: time 48-72 hrs, read-out: GI
PANC-1 = experiment: Antiproliferative activity against human PANC-1 cells assessed as cell growth inhibition at 2 uM measured after 48 to 72 hrs by MTT assay relative to control; assay type: functional; details: time 48-72 hrs, read-out: GI
BXPC-3 [3] = experiment: Antiproliferative activity against human BXPC-3 cells assessed as cell growth inhibition measured after 48 to 72 hrs by MTT assay; assay type: functional, cell-based; details: dose 2-32 µM, time 48-72 hrs
BXPC-3 [4] = experiment: Induction of morphological changes in human BXPC-3 cells assessed as assessed as increase in apoptotic cells at 8 uM measured after 48 hrs by light microscopic analysis; assay type: functional, cell-based
BXPC-3 [5] = experiment: Inhibition of c-Myc protein expression in human BXPC-3 cells at 4 to 16 uM measured after 48 hrs by Western blot analysis; assay type: functional, cell-based; details: dose 4-16 µM
[6] = target: Bromodomain-containing protein 4 (Homo sapiens, UniProt O60885); experiment: Inhibition of BRD4 in human BXPC-3 cells assessed as blocking of BRD4-pTEFB interaction; assay type: cell-based
BXPC-3 [7] = experiment: Cell cycle arrest in human BXPC-3 cells assessed as accumulation at G0/G1 phase measured after 48 hrs by AnnexinV-FITC/propidium iodide staining based flow cytometry; assay type: functional; details: dose 4-16 µM
BXPC-3 [8] = experiment: Cell cycle arrest in human BXPC-3 cells assessed as decrease in cell population at G2/M phase at 4 to 16 uM measured after 48 hrs by AnnexinV-FITC/propidium iodide staining based flow cytometry; assay type: functional; details: dose 4-16 µM
BXPC-3 [9] = experiment: Cell cycle arrest in human BXPC-3 cells assessed as accumulation at sub-G1 phase at 8 to 16 uM measured after 48 hrs by AnnexinV-FITC/propidium iodide staining based flow cytometry; assay type: functional; details: dose 8-16 µM
BXPC-3 [10] = experiment: Cell cycle arrest in human BXPC-3 cells assessed as accumulation at G1/S phase by measuring upregulation of Rb at 4 to 16 uM measured after 48 hrs by Western blot analysis; assay type: functional, cell-based; details: dose 4-16 µM
BXPC-3 [11] = experiment: Cell cycle arrest in human BXPC-3 cells assessed as accumulation at G1/S phase by measuring upregulation of p57 measured after 48 hrs by Western blot analysis; assay type: functional, cell-based; details: dose 4-16 µM
BXPC-3 [12] = experiment: Cell cycle arrest in human BXPC-3 cells assessed as acumulation at G0/G1 phase by measuring upregulation of p27 at 4 to 16 uM measured after 48 hrs by Western blot analysis; assay type: functional, cell-based; details: dose 4-16 µM
BXPC-3 [13] = experiment: Cell cycle arrest in human BXPC-3 cells assessed as acumulation at G0/G1 phase by measuring downregulation of CDK4 at 4 to 16 uM measured after 48 hrs by Western blot analysis; assay type: functional, cell-based; details: dose 4-16 µM
BXPC-3 [14] = experiment: Induction of apoptosis in human BXPC-3 cells measured after 48 hrs by AnnexinV/propidium iodide staining based flow cytometry; assay type: functional, cell-based; details: dose 4-16 µM
BXPC-3 [15] = experiment: Induction of apoptosis in human BXPC-3 cells assessed as upregulation of Bax at 4 to 16 uM measured after 48 hrs by Western blot analysis; assay type: functional, cell-based; details: dose 4-16 µM
BXPC-3 [16] = experiment: Induction of apoptosis in human BXPC-3 cells assessed as upregulation of caspase 3 at 4 to 16 uM measured after 48 hrs by Western blot analysis; assay type: functional, cell-based; details: dose 4-16 µM
BXPC-3 [17] = experiment: Induction of apoptosis in human BXPC-3 cells assessed as increase in cytochrome C expression at 4 to 16 uM measured after 48 hrs by Western blot analysis; assay type: functional, cell-based; details: dose 4-16 µM
BXPC-3 [18] = experiment: Induction of apoptosis in human BXPC-3 cells assessed as increase in cleaved PARP expression at 4 to 16 uM measured after 48 hrs by Western blot analysis; assay type: functional, cell-based; details: dose 4-16 µM
BXPC-3 [19] = experiment: Induction of apoptosis in human BXPC-3 cells assessed as early apoptotic cells at 4 uM measured after 48 hrs by AnnexinV/propidium iodide staining based flow cytometry (reference value: 1.02 %); assay type: functional
BXPC-3 [20] = experiment: Induction of apoptosis in human BXPC-3 cells assessed as late apoptotic cells at 4 uM measured after 48 hrs by AnnexinV/propidium iodide staining based flow cytometry (reference value: 5.15 %); assay type: functional
BXPC-3 [21] = experiment: Induction of apoptosis in human BXPC-3 cells assessed as early apoptotic cells at 8 uM measured after 48 hrs by AnnexinV/propidium iodide staining based flow cytometry (reference value: 1.02 %); assay type: functional
BXPC-3 [22] = experiment: Induction of apoptosis in human BXPC-3 cells assessed as late apoptotic cells at 8 uM measured after 48 hrs by AnnexinV/propidium iodide staining based flow cytometry (reference value: 5.15 %); assay type: functional
BXPC-3 [23] = experiment: Induction of apoptosis in human BXPC-3 cells assessed as early apoptotic cells at 16 uM measured after 48 hrs by AnnexinV/propidium iodide staining based flow cytometry (reference value: 1.02 %); assay type: functional
BXPC-3 [24] = experiment: Induction of apoptosis in human BXPC-3 cells assessed as late apoptotic cells at 16 uM measured after 48 hrs by AnnexinV/propidium iodide staining based flow cytometry (reference value: 1.02 %); assay type: functional
BXPC-3 [25] = experiment: Induction of apoptotic cell death in human BXPC-3 cells at 4 to 16 uM measured after 48 hrs by Live/Dead dye based inverted fluorescence microscopic analysis; assay type: functional; details: dose 4-16 µM
Panc02 [26] = experiment: Antitumor activity against mouse Panc02 allografted in BALB/c mouse assessed as reduction in tumor weight at 50 mg/kg, ip administered every day for 20 days relative to control; assay type: functional; details: 480 h, time 20 day, read-out: TGI
Mus musculus [27] = experiment: Decrease in c-Myc expression in BALB/c mouse allografted with mouse Panc02 cells […] at 50 mg/kg, ip administered every day measured after 20 days by immunohistochemical analysis; assay type: functional, organism-based; details: time 20.0 day
Mus musculus [28] = experiment: Upregulation of caspase 3 in BALB/c mouse allografted with mouse Panc02 cells […] at 50 mg/kg, ip administered every day in combination with gemcitabine at 100 mg/kg measured after 20 days by immunohistochemical analysis; assay type: functional, organism-based; details: time 20.0 day
Mus musculus [29] = experiment: Downregulation of Ki67 expression in BALB/c mouse allografted with mouse Panc02 cells […] at 50 mg/kg, ip administered every day measured after 20 days by immunohistochemical analysis; assay type: functional, organism-based; details: time 20.0 day
Panc02 [30] = experiment: Induction of apoptosis in mouse Panc02 cells allografted in BALB/c mouse assessed as condensed chromatin at 50 mg/kg, ip administered every day measured after 20 days by hematoxylin and eosin staining based assay; assay type: functional, organism-based; details: time 20.0 day
Panc02 [31] = experiment: Induction of apoptosis in mouse Panc02 cells allografted in BALB/c mouse assessed as condensed chromatin at 50 mg/kg, ip administered every day in combination with gemcitabine at 100 mg/kg measured after 20 days by hematoxylin and eosin staining based assay; assay type: functional, organism-based; details: time 20.0 day
BXPC-3 [32] = experiment: Cell cycle arrest in human BXPC-3 cells assessed as acumulation at G0/G1 phase by measuring downregulation of CyclinD1 at 4 to 16 uM measured after 48 hrs by Western blot analysis; assay type: functional, cell-based; details: dose 4-16 µM

CCS(=O)(=O)Nc1ccc(Oc2ccccc2F)c(-c2cn(C)c(=O)c3cncn23)c1 was tested, and the Activity (BXPC-3 [1]) was “Active”, the inhibition of growth at 2 µM (SMMC-7721) was 15.1% and the inhibition of growth at 2 µM (BXPC-3 [2]) was 38.4%. For the same compound, the inhibition of growth at 2 µM (PANC-1) was 16.5%, the “growth inhibition (GI)” value (BXPC-3 [3]) was “Dose-dependent effect” and the Activity (BXPC-3 [4]) was “Active”. For the same compound, the inhibition (BXPC-3 [5]) was “Active”, the inhibition [6] was “Active” and the Activity (BXPC-3 [7]) was “Dose-dependent effect”. The Activity (BXPC-3 [8]) was “Active”, the Activity (BXPC-3 [9]) was “Active” and the Activity (BXPC-3 [10]) was “Active”. The Activity (BXPC-3 [11]) was “Active”, the Activity (BXPC-3 [12]) was “Active” and the Activity (BXPC-3 [13]) was “Active”. For the same compound, the Activity (BXPC-3 [14]) was “Dose-dependent effect”, the Activity (BXPC-3 [15]) was “Active” and the Activity (BXPC-3 [16]) was “Active”. The Activity (BXPC-3 [17]) was “Active”, the Activity (BXPC-3 [18]) was “Active” and the Activity (BXPC-3 [19]) was 1.46%. The Activity (BXPC-3 [20]) was 8.59%, the Activity (BXPC-3 [21]) was 1.61% and the Activity (BXPC-3 [22]) was 12.36%. The Activity (BXPC-3 [23]) was 2.35%, the Activity (BXPC-3 [24]) was 19.21% and the Activity (BXPC-3 [25]) was “Active”. The inhibition in vivo at 50 mg/kg (Panc02 [26]) was 79%, the Activity (Mus musculus [27]) was “Active” and the Activity (Mus musculus [28]) was “Active”. For the same compound, the Activity (Mus musculus [29]) was “Active”, the Activity (Panc02 [30]) was “Active” and the Activity (Panc02 [31]) was “Active”. The Activity (BXPC-3 [32]) was “Active”.
